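Test compounds were applied to cells in 96-well plates for 48 hours at 5 doses. At the TGI there is no net growth.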
Experiments:
Experiment in all cases: NCI tumour cell line growth inhibition, 48 h
KM12 colon = tested on: KM12 colon
UACC-62 melanoma = tested on: UACC-62 melanoma
NCI-H23 lung = tested on: NCI-H23 lung
SF-295 CNS = tested on: SF-295 CNS
UO-31 renal = tested on: UO-31 renal
BT-549 breast = tested on: BT-549 breast
ACHN renal = tested on: ACHN renal
M14 melanoma = tested on: M14 melanoma
A549 NSCLC = tested on: A549 NSCLC
MDA-MB-435 = tested on: MDA-MB-435

## COc1ccc2[nH]c(C(=O)N3CC(CCl)c4c3cc(N)c3ccccc43)cc2c1 (stereo not given)
KM12 colon
  TGI: 0.263 µM
UACC-62 melanoma
  TGI: < 0.0116 µM
NCI-H23 lung
  TGI: < 0.0109 µM
SF-295 CNS
  TGI: < 0.0172 µM
UO-31 renal
  TGI: < 0.0164 µM
BT-549 breast
  TGI: < 0.0261 µM

## CN[C@@H](C)[C@@H](O)c1ccccc1
KM12 colon
  TGI: > 100 µM
ACHN renal
  TGI: > 100 µM
M14 melanoma
  TGI: > 100 µM
A549 NSCLC
  TGI: > 100 µM
NCI-H23 lung
  TGI: > 100 µM
MDA-MB-435
  TGI: > 100 µM
SF-295 CNS
  TGI: > 100 µM
UO-31 renal
  TGI: > 100 µM

## COC(=O)NC(Cc1ccccc1)NC(C)=O (stereo not given)
KM12 colon
  TGI: > 100 µM
ACHN renal
  TGI: > 100 µM
M14 melanoma
  TGI: > 100 µM
A549 NSCLC
  TGI: > 100 µM
UACC-62 melanoma
  TGI: > 100 µM
NCI-H23 lung
  TGI: > 100 µM
MDA-MB-435
  TGI: > 100 µM
SF-295 CNS
  TGI: > 100 µM
UO-31 renal
  TGI: > 100 µM
BT-549 breast
  TGI: > 100 µM

## CCCCCN(CCCCC)CC(C)(C)C(O)c1ccc(OC)c2ccccc12 (stereo not given)
KM12 colon
  TGI: 25.4 µM
ACHN renal
  TGI: 27.2 µM
M14 melanoma
  TGI: 21.7 µM
A549 NSCLC
  TGI: 21.1 µM
UACC-62 melanoma
  TGI: 25.6 µM
NCI-H23 lung
  TGI: 32.3 µM
MDA-MB-435
  TGI: 29.8 µM
SF-295 CNS
  TGI: 29.7 µM
UO-31 renal
  TGI: 8.93 µM

## Cc1cc(N2CCCC2)c([N+](=O)[O-])cc1[N+](=O)[O-]
KM12 colon
  TGI: > 100 µM
ACHN renal
  TGI: > 100 µM
M14 melanoma
  TGI: > 100 µM
A549 NSCLC
  TGI: > 100 µM
UACC-62 melanoma
  TGI: > 100 µM
NCI-H23 lung
  TGI: > 100 µM
MDA-MB-435
  TGI: > 100 µM
SF-295 CNS
  TGI: > 100 µM
UO-31 renal
  TGI: > 100 µM
BT-549 breast
  TGI: > 100 µM

## CCN(CC)CCOc1ccc(C(O)(Cc2ccc(OC)cc2)c2ccccc2)cc1 (stereo not given)
KM12 colon
  TGI: 36.2 µM
ACHN renal
  TGI: 65.3 µM
M14 melanoma
  TGI: 27.8 µM
A549 NSCLC
  TGI: 48.5 µM
UACC-62 melanoma
  TGI: 31 µM
NCI-H23 lung
  TGI: 45.1 µM
SF-295 CNS
  TGI: 33.1 µM
UO-31 renal
  TGI: 62 µM

## CC(=O)Oc1cc(OC(C)=O)c2c(C)cc(=O)oc2c1
KM12 colon
  TGI: > 100 µM
ACHN renal
  TGI: > 100 µM
M14 melanoma
  TGI: > 100 µM
A549 NSCLC
  TGI: > 100 µM
UACC-62 melanoma
  TGI: > 100 µM
NCI-H23 lung
  TGI: > 100 µM
MDA-MB-435
  TGI: > 100 µM
SF-295 CNS
  TGI: > 100 µM
UO-31 renal
  TGI: > 100 µM

## N=c1oc2ccccc2cc1-c1nc2ccccc2c(=O)[nH]1
KM12 colon
  TGI: > 100 µM
ACHN renal
  TGI: > 100 µM
M14 melanoma
  TGI: > 100 µM
A549 NSCLC
  TGI: > 100 µM
UACC-62 melanoma
  TGI: > 100 µM
MDA-MB-435
  TGI: > 100 µM
SF-295 CNS
  TGI: > 100 µM
UO-31 renal
  TGI: > 100 µM
BT-549 breast
  TGI: > 100 µM

## O=C(O)CCc1ccc2c(c1)CC1(Cc3ccccc3C1)C2
KM12 colon
  TGI: > 100 µM
ACHN renal
  TGI: > 100 µM
M14 melanoma
  TGI: > 100 µM
A549 NSCLC
  TGI: > 100 µM
UACC-62 melanoma
  TGI: > 100 µM
NCI-H23 lung
  TGI: > 100 µM
MDA-MB-435
  TGI: > 100 µM
SF-295 CNS
  TGI: > 100 µM
UO-31 renal
  TGI: > 100 µM

## O=[N+]([O-])c1ccc(N2N=C(c3ccc4ccccc4c3O)CC2c2ccc(Cl)cc2)c([N+](=O)[O-])c1 (stereo not given)
KM12 colon
  TGI: > 100 µM
ACHN renal
  TGI: > 100 µM
M14 melanoma
  TGI: > 100 µM
A549 NSCLC
  TGI: > 100 µM
UACC-62 melanoma
  TGI: > 100 µM
NCI-H23 lung
  TGI: > 100 µM
MDA-MB-435
  TGI: 33 µM
SF-295 CNS
  TGI: > 100 µM
UO-31 renal
  TGI: > 100 µM
BT-549 breast
  TGI: > 100 µM

## COc1ccc2c(c1)c1nn(CCN3CCCCC3)c3ccc4c(=O)n(CCN(C)C)c(=O)n2c4c13
KM12 colon
  TGI: 0.0801 µM
ACHN renal
  TGI: 0.243 µM
M14 melanoma
  TGI: 0.109 µM
A549 NSCLC
  TGI: 0.0497 µM
UACC-62 melanoma
  TGI: 0.197 µM
NCI-H23 lung
  TGI: 0.627 µM
MDA-MB-435
  TGI: 0.088 µM
SF-295 CNS
  TGI: < 0.0192 µM
UO-31 renal
  TGI: 0.354 µM
BT-549 breast
  TGI: 1.08 µM

## COc1ccc(N=C2C(=Nc3ccc(OC)cc3)N(c3ccc(N(C)C)cc3)C(=S)N2c2ccc(OC)cc2)cc1
KM12 colon
  TGI: > 100 µM
ACHN renal
  TGI: > 100 µM
M14 melanoma
  TGI: > 100 µM
A549 NSCLC
  TGI: > 100 µM
UACC-62 melanoma
  TGI: > 100 µM
NCI-H23 lung
  TGI: > 100 µM
MDA-MB-435
  TGI: > 100 µM
UO-31 renal
  TGI: > 100 µM
BT-549 breast
  TGI: > 100 µM

## CCOC(=O)C(NC(=O)CC)(Nc1ccc(F)c(Cl)c1)C(F)(F)F (stereo not given)
KM12 colon
  TGI: > 100 µM
ACHN renal
  TGI: > 100 µM
M14 melanoma
  TGI: > 100 µM
A549 NSCLC
  TGI: > 100 µM
UACC-62 melanoma
  TGI: > 100 µM
MDA-MB-435
  TGI: > 100 µM
SF-295 CNS
  TGI: > 100 µM
UO-31 renal
  TGI: > 100 µM
BT-549 breast
  TGI: > 100 µM

## Cc1ccc(S(=O)(=O)n2ccc(-c3ccc4ccn(S(=O)(=O)c5ccc(C)cc5)c4c3)c2)cc1
KM12 colon
  TGI: > 100 µM
ACHN renal
  TGI: > 100 µM
M14 melanoma
  TGI: > 100 µM
A549 NSCLC
  TGI: > 100 µM
UACC-62 melanoma
  TGI: > 100 µM
NCI-H23 lung
  TGI: > 100 µM
MDA-MB-435
  TGI: > 100 µM
SF-295 CNS
  TGI: > 100 µM
UO-31 renal
  TGI: > 100 µM
BT-549 breast
  TGI: > 100 µM

## CN(Cc1cnc2nc(N)nc(N)c2n1)c1ccc(C(=O)NC(CCC(=O)NC(CC(P(=O)(O)O)P(=O)(O)O)C(=O)O)C(=O)O)cc1 (stereo not given)
ACHN renal
  TGI: > 100 µM
M14 melanoma
  TGI: > 100 µM
A549 NSCLC
  TGI: > 100 µM
UACC-62 melanoma
  TGI: > 100 µM
NCI-H23 lung
  TGI: > 100 µM
MDA-MB-435
  TGI: > 100 µM
SF-295 CNS
  TGI: > 100 µM
UO-31 renal
  TGI: > 100 µM
BT-549 breast
  TGI: > 100 µM

## CCC(=O)/C(=C\I)c1ccccc1
KM12 colon
  TGI: 19.9 µM
M14 melanoma
  TGI: 4.72 µM
A549 NSCLC
  TGI: 37 µM
UACC-62 melanoma
  TGI: 9.77 µM
NCI-H23 lung
  TGI: 14.4 µM
MDA-MB-435
  TGI: 10.4 µM
SF-295 CNS
  TGI: 33.4 µM
UO-31 renal
  TGI: 4.2 µM
BT-549 breast
  TGI: 3.3 µM

## C=Cc1nc(C#N)c(N)o1
KM12 colon
  TGI: > 100 µM
M14 melanoma
  TGI: > 100 µM
A549 NSCLC
  TGI: > 100 µM
NCI-H23 lung
  TGI: > 100 µM
MDA-MB-435
  TGI: > 100 µM
SF-295 CNS
  TGI: > 100 µM
UO-31 renal
  TGI: > 100 µM
BT-549 breast
  TGI: > 100 µM

## N#CC[N+]1(Cc2ccccn2)CCCC1
KM12 colon
  TGI: > 100 µM
ACHN renal
  TGI: > 100 µM
M14 melanoma
  TGI: > 100 µM
A549 NSCLC
  TGI: > 100 µM
UACC-62 melanoma
  TGI: > 100 µM
NCI-H23 lung
  TGI: > 100 µM
MDA-MB-435
  TGI: > 100 µM
SF-295 CNS
  TGI: > 100 µM
UO-31 renal
  TGI: > 100 µM
BT-549 breast
  TGI: > 100 µM

## COC([C@@H](OC(=O)c1ccccc1)[C@H](OC(=O)c1ccccc1)C(O)COC(=O)c1ccccc1)n1cc(C)c(=O)[nH]c1=O (stereo not given in full)
ACHN renal
  TGI: > 100 µM
M14 melanoma
  TGI: 76 µM
A549 NSCLC
  TGI: > 100 µM
UACC-62 melanoma
  TGI: 56.3 µM
NCI-H23 lung
  TGI: > 100 µM
MDA-MB-435
  TGI: > 100 µM
SF-295 CNS
  TGI: 78.7 µM
UO-31 renal
  TGI: > 100 µM
BT-549 breast
  TGI: 77 µM

## CN(C)CC1CCC/C(=C\c2ccc(OC(=O)/C=C/c3ccc(Cl)c(Cl)c3)cc2)C1=O (stereo not given)
KM12 colon
  TGI: 3.61 µM
ACHN renal
  TGI: 3.46 µM
M14 melanoma
  TGI: 24.9 µM
A549 NSCLC
  TGI: 24.4 µM
UACC-62 melanoma
  TGI: 33.3 µM
NCI-H23 lung
  TGI: 14.4 µM
MDA-MB-435
  TGI: > 60.1 µM
SF-295 CNS
  TGI: 26.2 µM
UO-31 renal
  TGI: 13.9 µM
BT-549 breast
  TGI: 8.01 µM

## O=C(N/N=C(/COc1ccccc1Cl)N=Cc1ccncc1)c1ccncc1
KM12 colon
  TGI: > 100 µM
ACHN renal
  TGI: > 100 µM
M14 melanoma
  TGI: > 100 µM
A549 NSCLC
  TGI: > 100 µM
UACC-62 melanoma
  TGI: > 100 µM
NCI-H23 lung
  TGI: > 100 µM
MDA-MB-435
  TGI: > 100 µM
SF-295 CNS
  TGI: > 100 µM
BT-549 breast
  TGI: > 100 µM

## COc1ccc([C@]23CCN4COC[C@@H]([C@H]42)C2(CC3)OCC(C)(C)CO2)cc1OC
KM12 colon
  TGI: > 100 µM
ACHN renal
  TGI: > 100 µM
M14 melanoma
  TGI: > 100 µM
A549 NSCLC
  TGI: > 100 µM
UACC-62 melanoma
  TGI: > 100 µM
NCI-H23 lung
  TGI: > 100 µM
MDA-MB-435
  TGI: > 100 µM
SF-295 CNS
  TGI: > 100 µM
UO-31 renal
  TGI: > 100 µM
BT-549 breast
  TGI: > 100 µM

Source: PubChem BioAssay (NCI)
